In PubChem BioAssay AID2060490 (Molecular Pharmacology Branch, DTP, NCI, 2025):

Test system: 885512-296-R-J2-PDC complex spheroid viability
Assay: Anticancer human tumor 885512-296-R-J2-PDC patient-derived breast carcinoma cell line growth inhibition [GQUAD]
Conditions: for IC50: curve of first compound; for viability, T/C: stronger effect = lower value
From the text: DNA G-quadruplex Stabilizer Agents in Combinations in Complex Spheroids
A high-throughput screen of multi-cell type tumor spheroids was designed to identify active combinations of DNA G-quadruplex stabilizer agents and targeted small molecules. Complex spheroids include a stromal component modeled by human endothelial cells (HUVEC) and fibroblasts modeled by human mesenchymal stem cells (MSCs). The concentration ranges selected for each drug and investigational agent were based upon clinically achievable concentrations if the clinical Cmax of the agent was known.
Compounds. The drugs and investigational agents: pidnarulex (CX-5461; NSC782164), APTO-253 (NSC789042), BRACO-19 (NSC847499), peposertib (NSC802822), ceralasertib (NSC780249), elimusertib (NSC800525), camonsertib (NSC841442), AZD-1390 (NSC803789), olaparib (NSC753686), talazoparib (NSC767125), ART-558 (NSC835418), sotorasib (NSC818433), MRTX-1133 (NSC836407), SN-38 (NSC673596), topotecan (NSC609699), etoposide (NSC141540), doxorubicin (NSC123127), gemcitabine (NSC613327), 5-fluorouracil (NSC19893), paclitaxel (NSC125973), vemurafenib (NSC761431), panobinostat (NSC761190), R-306465 (JNJ-16241199; NSC773264), adavosertib (NSC754352), TP-3654 (NSC805149), carboplatin (NSC241240), KSQ-4279 (NSC840948), and staurosporine (NSC755774) were obtained from the National Cancer Institute (NCI) Developmental Therapeutics Program Chemical Repository (34). The FDA-approved anticancer drug set is available from the NCI Developmental Therapeutics Program. […] The stock solutions were prepared in dimethyl sulfoxide (DMSO, Sigma-Aldrich, St. Louis, MO, cat. D2650) at 800-fold the tested concentration and stored at -70 degrees C prior to their use. All drugs and investigational agents were tested over a range starting from a high concentration at or near the clinical Cmax and decreasing in half-log increments. If the clinical Cmax for an agent had not been determined, the highest concentration tested was 10 microM.
2.3 Cell Culture. All cells were maintained in an incubator at 37 degrees C and 5% CO2 with 95% humidity. The PDC lines were cultured according to standard operating procedures established by the NCI PDMR. All PDCs were thawed and cultured in Matrigel-coated flasks prepared with a working solution of 1X Ham's F-12 nutrient mix, without supplementation (Invitrogen, cat. 11765054), 100 U/mL penicillin-streptomycin (Invitrogen, cat. 15140122), and 2.5% Matrigel (Corning Inc., cat. 354248) for the first three passages. The 857933-349-R-J2-PDC line was cultured in 6C/Colon 1B media, which includes advanced DMEM/F-12 (Thermo Fisher Scientific, cat. 12634028), 10 mM HEPES (Thermo Fisher Scientific, cat. 15630080), 1X GlutaMAX supplement (Thermo Fisher Scientific, cat. 35050061), 0.1 mg/mL primocin (InvivoGen, cat. ant-pm-2), 10% defined fetal bovine serum, heat inactivated (HyClone Laboratories Inc., cat. SH30070.03HI), 50% L-WRN conditioned media (ATCC, cat. CRL-3276), 1.25 mM N-Acetyl-L-cysteine (Sigma-Aldrich, cat. A9165), 10 mM nicotinamide (Sigma-Aldrich, cat. N0636), 1X B-27 supplement (Thermo Fisher Scientific, cat. 17504044), 1X N-2 supplement (Thermo Fisher Scientific, cat. 17502048), 10 microM Y-27632 dihydrochloride (Tocris Bioscience, cat. 1254), and 50 ng/mL human EGF recombinant protein (Thermo Fisher Scientific, cat. PHG0311). The 485176-168-R4-J1-PDC line was cultured in Panc media, which includes all 6C/Colon 1B media components plus 100 ng/mL human FGF-10 (Thermo Fisher Scientific, cat. 100-26), 500 nM SB-431542 (Selleckchem, cat. S1067), and gastrin (Tocris, cat. 3006).
[…]

[1] = second compound 0.0316 µM, first compound 0.0316 µM
[2] = second compound 0.0316 µM, first compound 0.1 µM
[3] = second compound 0.0316 µM, first compound 0.316 µM
[4] = second compound 0.0316 µM, first compound 1 µM
[5] = second compound 0.0316 µM, first compound 3.16 µM
[6] = second compound 0.0316 µM, first compound 10 µM
[7] = second compound 0.1 µM, first compound 0.0316 µM
[8] = second compound 0.1 µM, first compound 0.1 µM
[9] = second compound 0.1 µM, first compound 0.316 µM
[10] = second compound 0.1 µM, first compound 1 µM
[11] = second compound 0.1 µM, first compound 3.16 µM
[12] = second compound 0.1 µM, first compound 10 µM
[13] = second compound 0.316 µM, first compound 0.0316 µM
[14] = second compound 0.316 µM, first compound 0.1 µM
[15] = second compound 0.316 µM, first compound 0.316 µM
[16] = second compound 0.316 µM, first compound 1 µM
[17] = second compound 0.316 µM, first compound 3.16 µM
[18] = second compound 0.316 µM, first compound 10 µM
[19] = second compound 1 µM, first compound 0.0316 µM
[20] = second compound 1 µM, first compound 0.1 µM
[21] = second compound 1 µM, first compound 0.316 µM
[22] = second compound 1 µM, first compound 1 µM
[23] = second compound 1 µM, first compound 3.16 µM
[24] = second compound 1 µM, first compound 10 µM
[25] = second compound 3.16 µM, first compound 0.0316 µM
[26] = second compound 3.16 µM, first compound 0.1 µM
[27] = second compound 3.16 µM, first compound 0.316 µM
[28] = second compound 3.16 µM, first compound 1 µM
[29] = second compound 3.16 µM, first compound 3.16 µM
[30] = second compound 3.16 µM, first compound 10 µM
[31] = second compound 10 µM, first compound 0.0316 µM
[32] = second compound 10 µM, first compound 0.1 µM
[33] = second compound 10 µM, first compound 0.316 µM
[34] = second compound 10 µM, first compound 1 µM
[35] = second compound 10 µM, first compound 3.16 µM
[36] = second compound 10 µM, first compound 10 µM
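Also: spheroids exposed to the compounds for one week.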
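For viability, T/C in this document: percent of tumor spheroid viability relative to DMSO vehicle control wells.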

C#Cc1c(F)ccc2cc(O)cc(-c3ncc4c(N5CC6CCC(C5)N6)nc(OCC56CCCN5CC(F)C6)nc4c3F)c12 (stereo not drawn) + Cc1[nH]c2ccc(F)cc2c1-c1nc2c3cccnc3c3ncccc3c2[nH]1
IC50 (second compound 0.0316 µM): 1600 nM
IC50 (second compound 0.1 µM): 1450 nM
IC50 (second compound 0.316 µM): 1450 nM
IC50 (second compound 1 µM): 393 nM
IC50 (second compound 3.16 µM): < 31.6 nM
IC50 (second compound 10 µM): < 31.6 nM
viability, T/C [1]: 109%
viability, T/C [2]: 92.7%
viability, T/C [3]: 94.5%
viability, T/C [4]: 73.4%
viability, T/C [5]: 13.6%
viability, T/C [6]: 18.1%
viability, T/C [7]: 103%
viability, T/C [8]: 90.8%
viability, T/C [9]: 95%
viability, T/C [10]: 67.7%
viability, T/C [11]: 8.04%
viability, T/C [12]: 17.1%
viability, T/C [13]: 88.6%
viability, T/C [14]: 87.4%
viability, T/C [15]: 82.3%
viability, T/C [16]: 67.5%
viability, T/C [17]: 10.2%
viability, T/C [18]: 16.4%
viability, T/C [19]: 52.9%
viability, T/C [20]: 52.9%
viability, T/C [21]: 54.3%
viability, T/C [22]: 35.6%
viability, T/C [23]: 1.25%
viability, T/C [24]: 1.01%
viability, T/C [25]: 2.98%
viability, T/C [26]: 2.55%
viability, T/C [27]: 4.13%
viability, T/C [28]: 1.7%
viability, T/C [29]: 0.26%
viability, T/C [30]: 0.33%
viability, T/C [31]: 1.35%
viability, T/C [32]: 1.38%
viability, T/C [33]: 1.82%
viability, T/C [34]: 1.42%
viability, T/C [35]: 0.24%
viability, T/C [36]: 0.41%

CC(=O)O[C@H]1C(=O)[C@@]2(C)[C@H]([C@H](OC(=O)c3ccccc3)[C@]3(O)C[C@H](OC(=O)[C@H](O)[C@@H](NC(=O)c4ccccc4)c4ccccc4)C(C)=C1C3(C)C)[C@]1(OC(C)=O)CO[C@@H]1C[C@@H]2O + Cc1[nH]c2ccc(F)cc2c1-c1nc2c3cccnc3c3ncccc3c2[nH]1
IC50 (second compound 0.0316 µM): 148 nM
IC50 (second compound 0.1 µM): 176 nM
IC50 (second compound 0.316 µM): 240 nM
IC50 (second compound 1 µM): 117 nM
IC50 (second compound 3.16 µM): < 31.6 nM
IC50 (second compound 10 µM): < 31.6 nM
viability, T/C [1]: 100%
viability, T/C [2]: 67.2%
viability, T/C [3]: 16.9%
viability, T/C [4]: 3.76%
viability, T/C [5]: 1%
viability, T/C [6]: 0.76%
viability, T/C [7]: 90.5%
viability, T/C [8]: 77.2%
viability, T/C [9]: 21.5%
viability, T/C [10]: 5.55%
viability, T/C [11]: 0.13%
viability, T/C [12]: 0.12%
viability, T/C [13]: 78.4%
viability, T/C [14]: 70.6%
viability, T/C [15]: 43.7%
viability, T/C [16]: 5.11%
viability, T/C [17]: 0.81%
viability, T/C [18]: 0.08%
viability, T/C [19]: 52.8%
viability, T/C [20]: 58.1%
viability, T/C [21]: 16.4%
viability, T/C [22]: 1.87%
viability, T/C [23]: 0.21%
viability, T/C [24]: 0.41%
viability, T/C [25]: 3.83%
viability, T/C [26]: 6.17%
viability, T/C [27]: 8.48%
viability, T/C [28]: 0.24%
viability, T/C [29]: 0.53%
viability, T/C [30]: 0.46%
viability, T/C [31]: 1.53%
viability, T/C [32]: 1.57%
viability, T/C [33]: 4.36%
viability, T/C [34]: 0.21%
viability, T/C [35]: 0.84%
viability, T/C [36]: 1.07%

CCCS(=O)(=O)Nc1ccc(F)c(C(=O)c2c[nH]c3ncc(-c4ccc(Cl)cc4)cc23)c1F + Cc1[nH]c2ccc(F)cc2c1-c1nc2c3cccnc3c3ncccc3c2[nH]1
IC50 (second compound 0.0316 µM): 393 nM
IC50 (second compound 0.1 µM): 406 nM
IC50 (second compound 0.316 µM): 183 nM
IC50 (second compound 1 µM): 49.3 nM
IC50 (second compound 3.16 µM): < 31.6 nM
IC50 (second compound 10 µM): < 31.6 nM
viability, T/C [1]: 112%
viability, T/C [2]: 98.4%
viability, T/C [3]: 60.7%
viability, T/C [4]: 8.66%
viability, T/C [5]: 3.89%
viability, T/C [6]: 2.96%
viability, T/C [7]: 121%
viability, T/C [8]: 101%
viability, T/C [9]: 64%
viability, T/C [10]: 8.42%
viability, T/C [11]: 2.95%
viability, T/C [12]: 3.79%
viability, T/C [13]: 94.4%
viability, T/C [14]: 74%
viability, T/C [15]: 28.7%
viability, T/C [16]: 2.94%
viability, T/C [17]: 2.46%
viability, T/C [18]: 4.34%
viability, T/C [19]: 68.3%
viability, T/C [20]: 20.9%
viability, T/C [21]: 4.4%
viability, T/C [22]: 2.04%
viability, T/C [23]: 2.3%
viability, T/C [24]: 2.75%
viability, T/C [25]: 4.29%
viability, T/C [26]: 3.06%
viability, T/C [27]: 1.78%
viability, T/C [28]: 2%
viability, T/C [29]: 2.26%
viability, T/C [30]: 2.26%
viability, T/C [31]: 1.32%
viability, T/C [32]: 1.38%
viability, T/C [33]: 1.47%
viability, T/C [34]: 1.65%
viability, T/C [35]: 2.7%
viability, T/C [36]: 3.37%

Nc1ccn(C2OC(CO)C(O)C2(F)F)c(=O)n1 (stereo not drawn) + Cc1[nH]c2ccc(F)cc2c1-c1nc2c3cccnc3c3ncccc3c2[nH]1
IC50 (second compound 0.0316 µM): < 31.6 nM
IC50 (second compound 0.1 µM): < 31.6 nM
IC50 (second compound 0.316 µM): < 31.6 nM
IC50 (second compound 1 µM): < 31.6 nM
IC50 (second compound 3.16 µM): < 31.6 nM
IC50 (second compound 10 µM): < 31.6 nM
viability, T/C [1]: 14.6%
viability, T/C [2]: 3.03%
viability, T/C [3]: 2.43%
viability, T/C [4]: 3.01%
viability, T/C [5]: 3.2%
viability, T/C [6]: 2.56%
viability, T/C [7]: 16.3%
viability, T/C [8]: 3.26%
viability, T/C [9]: 3.63%
viability, T/C [10]: 3.04%
viability, T/C [11]: 3%
viability, T/C [12]: 3.74%
viability, T/C [13]: 14.6%
viability, T/C [14]: 3.44%
viability, T/C [15]: 3.02%
viability, T/C [16]: 2.57%
viability, T/C [17]: 2.96%
viability, T/C [18]: 3.36%
viability, T/C [19]: 8.48%
viability, T/C [20]: 2.45%
viability, T/C [21]: 2.51%
viability, T/C [22]: 2.76%
viability, T/C [23]: 2.94%
viability, T/C [24]: 2.65%
viability, T/C [25]: 2.21%
viability, T/C [26]: 1.43%
viability, T/C [27]: 1.74%
viability, T/C [28]: 1.98%
viability, T/C [29]: 1.96%
viability, T/C [30]: 1.86%
viability, T/C [31]: 1.33%
viability, T/C [32]: 1.29%
viability, T/C [33]: 1.17%
viability, T/C [34]: 1.35%
viability, T/C [35]: 1.44%
viability, T/C [36]: 1.08%
